Reference: US6506749B2, “7-oxo-pyridopyrimidines (I)” (Syntex (U.S.A.) LLC, priority 2000, dated 2003)
Where a name gives a salt, the structure may show the parent alone.

Experiments:
p38 MAP kinase = target: T1, p38 MAP kinase (Homo sapiens, UniProt Q16539); experiment: in vitro inhibition of p-38 (MAP) kinase, transfer of γ-33P from ATP to Myelin Basic Protein; type: biochemical; conditions: phosphorylated recombinant p38 MAP kinase; MBP substrate, γ-33P-ATP; 30° C.
T1 construct: made in house; host or cells: E. coli (co-expressed with SEK-1 and MEKK to phosphorylate p38)
Description: This example illustrate an assay protocol for determining in vitro inhibition of p-38 (MAP) Kinase.
The phosphorylated form of the recombinant p38 MAP kinase was expressed with SEK-1 and MEKK in E. Coli and then purified by affinity chromatography using a Nickel column.
The phosphorylated p38 MAP kinase was diluted in kinase buffer (20 mM 3-(N-morpholino)propanesulfonic acid, pH 7.2, 25 mM β-glycerol phosphate, 5 mM ethylene glycol-bis(beta-aminoethyl ether)-N,N,N′,N′-tetraacetic acid, 1 mM sodium vanadate, 1 mM dithiothreitol, 40 mM magnesium chloride). Test compound dissolved in DMSO or only DMSO (control) was added and the samples were incubated for 10 min at 30° C. The kinase reaction was initiated by the addition of a substrate cocktail containing MBP and γ-^33P-ATP. After incubating for an additional 20 min at 30° C., the reaction was terminated by adding 0.75% phosphoric acid. The phosphorylated MBP was then separated from the residual γ-^33P-ATP using a phosphocellulose membrane (Millipore, Bedford, Mass.) and quantitated using a scintillation counter (Packard, Meriden, Conn.).

T1 sequence (Q16539 whole entry): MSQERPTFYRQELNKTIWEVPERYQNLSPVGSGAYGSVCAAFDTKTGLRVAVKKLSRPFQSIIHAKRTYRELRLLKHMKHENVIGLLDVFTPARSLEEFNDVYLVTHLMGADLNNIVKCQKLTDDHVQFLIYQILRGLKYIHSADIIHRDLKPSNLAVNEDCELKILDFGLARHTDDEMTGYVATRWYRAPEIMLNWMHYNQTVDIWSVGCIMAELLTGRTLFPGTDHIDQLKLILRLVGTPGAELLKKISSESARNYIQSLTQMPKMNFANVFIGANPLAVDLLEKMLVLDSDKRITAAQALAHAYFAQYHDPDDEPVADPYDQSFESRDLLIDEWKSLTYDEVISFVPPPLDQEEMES

| Compound | melting point | IC50 (p38 MAP kinase) |
| --- | --- | --- |
| Cl.Cn1c(=O)c(-c2ccccc2Cl)cc2cnc(NC3(CO)CCCCC3)nc21 | 185 to 188.6 °C | – |
| Cl.O=c1c(-c2ccccc2Cl)cc2cnc(N[C@H]3CC[C@H](O)CC3)nc2n1C1CC1 | 241.7 to 242.3 °C | – |
| Cn1c(=O)c(-c2ccccc2Cl)cc2cnc(N[C@H]3CC[C@H](O)CC3)nc21 (as salt: salt) [Cpd 1] | 163.4 to 171.1 °C | – |
| Cn1c(=O)c(-c2ccccc2Cl)cc2cnc(NC3(CO)CCCC3)nc21 (as salt: salt) [Cpd 2] | 213.7 to 214.6 °C | – |
| N[C@H]1CC[C@H](Nc2ncc3cc(-c4ccccc4Cl)c(=O)[nH]c3n2)CC1 (as salt: salt) [Cpd 17] | > 300 °C | – |
| Cn1c(=O)c(-c2ccccc2Cl)cc2cnc(N[C@H]3CC[C@H](O)CC3)nc21 [Cpd 1] | – | 20.5 nM |
| Cn1c(=O)c(-c2ccccc2Cl)cc2cnc(NC3(CO)CCCC3)nc21 [Cpd 2] | – | 41.9 nM |
| Cn1c(=O)c(-c2ccccc2Cl)cc2cnc(NC3CCC(OC=O)CC3)nc21 (centres unmarked) [Cpd 4] | 196.1 to 196.6 °C | – |
| CC(=O)OC1CCC(Nc2ncc3cc(-c4ccccc4Cl)c(=O)n(C)c3n2)CC1 (centres unmarked) [Cpd 5] | 200.9 to 201.2 °C | – |
| Cn1c(=O)c(-c2ccccc2Cl)cc2cnc(NC3CCC4(CC3)OCCCO4)nc21 [Cpd 8] | 196.1 to 196.5 °C | – |
| O=CO[C@H]1CC[C@H](Nc2ncc3cc(-c4ccccc4Cl)c(=O)[nH]c3n2)CC1 [Cpd 19] | > 300 °C | – |
| CC(C)(O)Cn1c(=O)c(-c2ccccc2Cl)cc2cnc(NC3CCOCC3)nc21 [Cpd 117] | 189 to 191.5 °C | – |
| CCCS(=O)(=O)N1CCC(Nc2ncc3cc(-c4ccccc4C)c(=O)n(C)c3n2)CC1.Cl [Cpd 126] | 211.7 to 212.6 °C | 0.3 nM |
| Cc1ccccc1-c1cc2cnc(NC3CCN(S(=O)(=O)CC(F)(F)F)CC3)nc2n(C)c1=O.Cl [Cpd 128] | 200 to 204 °C | 0.6 nM |
| CCn1c(=O)c(-c2ccccc2Cl)cc2cnc(NC3CCOCC3)nc21.Cl [Cpd 136] | 185.3 to 190.1 °C | 8.2 nM |
| Cc1ccccc1-c1cc2cnc(NC3CCSCC3)nc2n(C)c1=O [Cpd 140] | 186.6 to 188.1 °C | – |

Further lines, results first:

| melting point | IC50 (p38 MAP kinase) | Compound |
| --- | --- | --- |
| 163.4 to 171.1 °C | – | Cn1c(=O)c(-c2ccccc2Cl)cc2cnc(N[C@H]3CC[C@H](N)CC3)nc21 (as salt: HCl) [Example 38] |
| 202 to 206 °C | – | O=c1c(-c2ccccc2Cl)cc2cnc(N[C@H]3CC[C@H](O)CC3)nc2n1Cc1ccccc1 (as salt: HCl) [Example 41] |
| 208 to 210 °C | – | O=C1c2ccccc2C(=O)N1CCn1c(=O)c(-c2ccccc2Cl)cc2cnc(N[C@H]3CC[C@H](O)CC3)nc21 (as salt: HCl) [Example 77] |
| 232.1 to 233.1 °C | – | Cn1c(=O)c(-c2ccccc2Cl)cc2cnc(NC3CCSCC3)nc21 (as salt: HCl) [Example 78, 2-(4-tetrahydrothiopyranylamino)-6-(2-chlorophenyl)-8-methyl-8H-pyrido[2,3-d]pyrimidin-7-one] |
| 165 to 169 °C | – | CS(=O)(=O)N1CCC(Nc2ncc3cc(-c4ccccc4Cl)c(=O)n(-c4ccc(F)cc4)c3n2)CC1 (as salt: HCl) [Example 96] |
| > 300 °C | – | CS(=O)(=O)N[C@H]1CC[C@H](Nc2ncc3c(n2)=NC(=O)C(c2ccccc2Cl)C=3)CC1 (stereo partly drawn) (as salt: hydrochloric acid salt) [Example 16, 2-(trans-4-methanesulfonylaminocyclohexylamino)-6-(2-chlorophenyl)-pyrido[2,3-d]pyrimidin-7-one] |
| 191.1 to 194.3 °C | – | O=c1[nH]c2nc(N[C@H]3CC[C@H](O)CC3)ncc2cc1-c1ccccc1Cl (as salt: hydrochloride) [Example 11, 2-(trans-4-hydroxycyclohexylamino)-6-(2-chlorophenyl)-pyrido[2,3-d]pyrimidin-7-ol] |
| 190.3 to 191.4 °C | – | Cn1c(=O)c(-c2ccccc2Cl)cc2cnc(N[C@H]3CC[C@H](N)CC3)nc21 (as salt: hydrochloride) [Example 13, 2-(trans-4-aminocyclohexylamino)-6-(2-chlorophenyl)-8-methyl-pyrido[2,3-d]pyrimidin-7-one] |
| 260.9 to 261.1 °C | – | Cn1c(=O)c(-c2ccccc2Cl)cc2cnc(N[C@H]3CC[C@H](NS(C)(=O)=O)CC3)nc21 (as salt: hydrochloride) [Example 14, 2-(trans-4-methanesulfonylaminocyclohexylamino)-6-(2-chlorophenyl)-8-methyl-pyrido[2,3-d]pyrimidin-7-one] |
| 251.2 to 252 °C | – | O=C1CCC(Nc2ncc3cc(-c4ccccc4Cl)c(=O)n(CC(F)(F)F)c3n2)CC1 (as salt: hydrochloride) [Example 59] |
| 128 to 141.5 °C | – | CS(=O)(=O)N1CCC(Nc2ncc3cc(-c4ccccc4Cl)c(=O)n(C4CC4)c3n2)CC1 (as salt: hydrochloride) [Example 88] |
| 160.1 to 167 °C | – | CCS(=O)(=O)CCC(C)Nc1ncc2cc(-c3ccccc3Cl)c(=O)n(C)c2n1 (centres unmarked) (as salt: hydrochloride) [Example 102] |
| – | 6.2 nM | Cn1c(=O)c(-c2ccccc2Cl)cc2cnc(N[C@H]3CC[C@H](N)CC3)nc21 [Example 38] |
| – | 5.1 nM | O=c1c(-c2ccccc2Cl)cc2cnc(N[C@H]3CC[C@H](O)CC3)nc2n1Cc1ccccc1 [Example 41] |
| 232.1 to 233.4 °C | 7.8 nM | Cl.N#CCn1c(=O)c(-c2ccccc2Cl)cc2cnc(N[C@H]3CC[C@H](O)CC3)nc21 [Example 44] |
| 227.2 to 230.4 °C | – | O=c1c(-c2ccccc2Cl)cc2cnc(N[C@H]3CC[C@H](O)CC3)nc2n1CC(F)(F)F [Example 55] |
| 125.7 to 128.1 °C | – | CN1CCN(Nc2ncc3cc(-c4ccccc4Cl)c(=O)n(C)c3n2)CC1 [Example 85] |
| – | 4.8 nM | Cn1c(=O)c(-c2ccccc2Cl)cc2cnc(NC3CCN(C(N)=O)CC3)nc21 [compound 11] |
| – | 35.5 nM | Cn1c(=O)c(-c2ccccc2Cl)cc2cnc(NC3CCN(CC#N)CC3)nc21 [compound 24] |
| – | 41.5 nM | Cn1c(=O)c(-c2ccccc2Cl)cc2cnc(NC3CCC4(CC3)NC(=O)NC4=O)nc21 (centres unmarked) [compound 29] |
| – | 30.5 nM | Cn1c(=O)c(-c2ccccc2Cl)cc2cnc(N[C@H]3CC[C@H](NS(C)(=O)=O)CC3)nc21 [compound 37] |
